Publication PMC11946258, “Self-Assembly, Antimicrobial Properties and Biodegradability of Ester-Functionalized Choline-Based Surface-Active Ionic Liquids” (Molecules, 2025)

Assays:
[1] = tested on: Escherichia coli; experiment: MIC broth microdilution; type: cell-based; conditions: ATCC8739; Escherichia coli ATCC 8739, 24 h, 37 °C
Protocol: (§1) The antimicrobial activity of cholinium-based ILs with an ester group in the alkyl chain was evaluated against a range of representative bacteria and fungi.
(§2) Antibacterial assays were performed against the following microorganisms: Bacillus subtilis ATCC 6633, Staphylococcus epidermidis ATCC 12228, Staphylococcus aureus ATCC 29213, Micrococcus luteus ATCC10240, Listeria monocytogenes ATCC 15313, methicillin-resistant Staphylococcus aureus ATCC 43300, Escherichia coli ATCC 8739, Acinetobacter baumannii ATCC 19606, Klebsiella aerogenes ATCC 13048, Pseudomonas aeruginosa 9027, and Salmonella enterica ATCC14208. The antibacterial activity was assessed in vitro using the minimum inhibitory concentration (MIC) method. MIC is defined as the lowest concentration of an antimicrobial agent that prevents visible bacterial growth after 24 h of incubation at 37 °C. The ionic liquids were dissolved in Mueller–Hinton broth (MBH) at concentrations ranging from 1 to 256 μg/mL. The broth was added (200 μL) to appropriate wells of a 96-well polystyrene microtitre plate. Then, 10 μL of a nutrient broth starter culture of each bacterial strain was added to achieve final inocula of approximately […] colony forming units (CFU)/mL. A growth control using nutrient broth medium without the ionic liquid was included. The plates were incubated 37 °C for 24 h. Bacterial growth was initially observed visually, with increased turbidity indicating cell growth. […] A color change of resazurine from blue to pink indicated bacterial metabolic activity. All the experiments were performed in triplicate to ensure reproducibility.

[2] = tested on: Klebsiella aerogenes; experiment: MIC broth microdilution; type: cell-based; conditions: ATCC13048; Klebsiella aerogenes ATCC 13048, 24 h, 37 °C
Protocol: as §1, §2

[3] = tested on: Acinetobacter baumannii; experiment: MIC broth microdilution; type: cell-based; conditions: ATCC19606; Acinetobacter baumannii ATCC 19606, 24 h, 37 °C
Protocol: as §1, §2

[4] = tested on: Micrococcus luteus; experiment: MIC broth microdilution; type: cell-based; conditions: Micrococcus luteus ATCC10240, 24 h, 37 °C
Protocol: as §1, §2

[5] = tested on: Salmonella enterica; experiment: MIC broth microdilution; type: cell-based; conditions: Salmonella enterica ATCC14208, 24 h, 37 °C
Protocol: as §1, §2

[6] = tested on: Staphylococcus epidermidis; experiment: MIC broth microdilution; type: cell-based; conditions: ATCC12228; Staphylococcus epidermidis ATCC 12228, 24 h, 37 °C
Protocol: as §1, §2

[7] = tested on: Listeria monocytogenes; experiment: MIC broth microdilution; type: cell-based; conditions: ATCC15313; Listeria monocytogenes ATCC 15313, 24 h, 37 °C
Protocol: as §1, §2

[8] = tested on: Pseudomonas aeruginosa; experiment: MIC broth microdilution; type: cell-based; conditions: Pseudomonas aeruginosa 9027, 24 h, 37 °C
Protocol: as §1, §2

[9] = tested on: Staphylococcus aureus; experiment: MIC broth microdilution; type: cell-based; conditions: ATCC29213; Staphylococcus aureus ATCC 29213, 24 h, 37 °C
Protocol: as §1, §2

[10] = tested on: MRSA biofilms; experiment: MRSA mature biofilm eradication (crystal violet); type: cell-based, methicillin-resistant Staphylococcus aureus; conditions: CV staining, up to the highest tested concentration of 256 µg/mL
Protocol: The capacity of the ester-functionalised cholinium-based ILs to eradicate established MRSA biofilms was evaluated through the performance of eradication assays on microtiter plates. CV staining was applied to measure biofilm biomass.
(§3) Antibiofilm activity was assessed against biofilm-forming strains of methicillin-resistant Staphylococcus aureus (MRSA) ATCC 43300 and Candida albicans ATCC 90028. The biofilm inhibition and eradication capacities of ILs were evaluated against adherent bacterial biofilms grown in 96-well microtiter plates. Bacteria were grown on Tryptic soy agar at 37 °C for 24 h and the fungi on Sabouraud agar at 30 °C for 24 h. Bacteria were suspended in lysogeny broth containing glucose (1%) at 1.5 × 10^8 CFU/mL and yeasts were suspended in RPMI medium at 1.5 × 10^7 CFU/mL.
To evaluate the effect of ionic liquids on mature biofilms, we employed a modified microtiter plate assay. We first generated mature biofilms by incubating 200 μL of diluted bacterial suspension in each well of a 96-well plate for 24 h at 37 °C. After gently washing the biofilms with PBS, we added 200 μL of ionic liquid solution at various concentrations (4–256 μg/mL, using two-fold serial dilutions) to each well and incubated for an additional 24 h at 37 °C. Following treatment, we fixed the biofilms with 150 μL methanol for 10 min. The subsequent crystal violet (CV) staining and quantification steps were performed as described in the previous biofilm formation assay (Section 3.6.1), allowing us to assess the impact of ionic liquids on established biofilms.

[11] = tested on: MRSA biofilm; experiment: MRSA biofilm formation inhibition (crystal violet); type: cell-based, methicillin-resistant Staphylococcus aureus; conditions: Staphylococcus aureus, at 128 µg/mL (highest concentration tested), 24 h, 37 °C, CV staining
Protocol: To assess the ability of ester-functionalized cholinium-based ILs to suppress MRSA biofilm formation, CnECholBr samples were introduced to newly prepared bacterial suspensions. These mixtures were then incubated for 24 h at 37 °C. Subsequently, crystal violet (CV) staining was employed to quantify the biofilm biomass. The findings from this experiment are illustrated in Figure 4.
as §3
To assess the effect of ionic liquids on bacterial biofilm formation, we employed a microplate assay. We added 100 μL of IL at varying concentrations (2–128 μg/mL, using two-fold serial dilutions) to each well of a 96-well microplate, followed by 100 μL of diluted bacterial suspension. After incubating the plates at 37 °C for 24 h, we measured bacterial growth by recording the optical density at 600 nm (OD600). We then discarded the spent media, fixed the biofilm with methanol, and stained it with crystal violet. Following a water rinse, we dissolved the stained biofilm using an ethanol-acetic acid solution and measured the absorbance at 570 nm to quantify biofilm formation. To ensure reproducibility, we performed each assay in triplicate and averaged the results.

[12] = Critical micelle concentration by pyrene fluorescence; type: physicochemical; conditions: fluorescence (pyrene I1/I3), aqueous solution, 25 °C
Protocol: The aggregation behavior of ester-functionalized choline-based ILs was investigated through fluorescence measurements using pyrene as a solvatochromic probe. By monitoring the polarity of pyrene’s microenvironment at varying IL concentrations, the intensity ratio of pyrene’s first (I1) and third (I3) vibronic peaks was analyzed (Figure 3). A sharp decline in the I1/I3 ratio indicated the formation of IL aggregates. The critical micelle concentration (CMC) was determined as the midpoint of the transition, with the data fitting well to sigmoidal Boltzmann-type curves.
A Shimadzu RF 540 spectrofluorometer equipped with cell holder thermostatical controlled at 25 °C was used to detect steady-state fluorescence. The fluorescent probe, pyrene, was used at a concentration of 1 × 10^−6 M. After irradiation at 332 nm, the fluorescence emission spectra of pyrene dissolved in aqueous CnECholBr solutions were recorded from 340 to 450 nm.

Compound	MIC [1] [µg/mL]	MIC [2] [µg/mL]	MIC [3] [µg/mL]	MIC [4] [µg/mL]	MIC [5] [µg/mL]	MIC [6] [µg/mL]	MIC [7] [µg/mL]	MIC [8] [µg/mL]	MIC [9] [µg/mL]	biofilm biomass removal [10]	inhibition at 128 µg/mL [11] [%]	CMC [12] [mM]
CCCCCCCCCCOC(=O)C[N+](C)(C)CCO [C10ECholBr]	> 256	> 256	> 256	> 256	> 256	> 256	> 256	> 256	> 256	less than 20%	< 15	9.0 ± 0.5
CCCCCCCCCCCCOC(=O)C[N+](C)(C)CCO [C12ECholBr]	> 256	> 256	> 256	16	> 256	64	> 256	> 256	64	≤ 60%	> 90	2.9 ± 0.1
CCCCCCCCCCCCCCOC(=O)C[N+](C)(C)CCO.[Br-] [C14ECholBr, N-(2-hydroxyethyl)-N,N-dimethyl-2-oxo-2-(tetradecyloxy)ethan-1-aminium bromide]	> 256	> 256	> 256	8	> 256	64	> 256	> 256	128	≤ 60%	≤ 50	1.3 ± 0.1
